# Measurements reported in patent publication US12479847B2 (DANA-FARBER CANCER INSTITUTE, INC., priority 2019, dated 2025).
# Like-named read-outs stand apart in the source and are kept apart here.
# What was measured:
# Experiment in all cases: KINOMEscan (ScanMAX) kinase profiling
# Type in all cases: binding
# panel of 468 kinases [1] = molecular target: T1, panel of 468 kinases (Homo sapiens, UniProt Q12866); conditions: MERTK; 1 μM; read-out: % control
# T1 construct: purchased KINOMEscan (ScanMAX) service
# T1 sequence (Q12866 21-999): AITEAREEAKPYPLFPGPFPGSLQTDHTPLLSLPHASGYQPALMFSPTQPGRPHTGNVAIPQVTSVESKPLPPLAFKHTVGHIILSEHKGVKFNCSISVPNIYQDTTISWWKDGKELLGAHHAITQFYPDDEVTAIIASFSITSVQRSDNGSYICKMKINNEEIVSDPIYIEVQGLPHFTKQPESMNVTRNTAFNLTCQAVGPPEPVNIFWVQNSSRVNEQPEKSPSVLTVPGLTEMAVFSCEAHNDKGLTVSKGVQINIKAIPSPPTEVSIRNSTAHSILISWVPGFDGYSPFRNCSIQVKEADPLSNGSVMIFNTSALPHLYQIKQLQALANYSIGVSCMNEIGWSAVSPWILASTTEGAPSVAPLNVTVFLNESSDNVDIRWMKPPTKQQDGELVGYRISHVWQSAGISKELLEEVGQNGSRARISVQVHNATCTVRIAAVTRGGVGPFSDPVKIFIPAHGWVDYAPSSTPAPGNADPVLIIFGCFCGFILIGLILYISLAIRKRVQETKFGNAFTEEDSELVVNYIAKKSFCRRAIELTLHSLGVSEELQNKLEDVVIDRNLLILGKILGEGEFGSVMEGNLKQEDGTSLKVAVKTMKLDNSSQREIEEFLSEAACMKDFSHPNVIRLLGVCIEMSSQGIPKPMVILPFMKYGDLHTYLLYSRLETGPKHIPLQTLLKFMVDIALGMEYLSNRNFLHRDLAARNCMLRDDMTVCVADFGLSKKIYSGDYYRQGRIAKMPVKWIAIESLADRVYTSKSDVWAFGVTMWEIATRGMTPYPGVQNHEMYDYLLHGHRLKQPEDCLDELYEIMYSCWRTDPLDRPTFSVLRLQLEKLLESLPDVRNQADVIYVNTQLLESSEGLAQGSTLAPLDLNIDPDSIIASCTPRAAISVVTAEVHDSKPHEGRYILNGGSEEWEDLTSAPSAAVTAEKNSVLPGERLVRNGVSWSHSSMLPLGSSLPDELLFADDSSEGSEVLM
# panel of 468 kinases [2] = molecular target: T2, panel of 468 kinases (Homo sapiens, UniProt P00519, F317L); conditions: 1 μM, read-out: % control
# T2 construct: purchased KINOMEscan (ScanMAX) service
# T2 sequence (P00519 whole entry F317L): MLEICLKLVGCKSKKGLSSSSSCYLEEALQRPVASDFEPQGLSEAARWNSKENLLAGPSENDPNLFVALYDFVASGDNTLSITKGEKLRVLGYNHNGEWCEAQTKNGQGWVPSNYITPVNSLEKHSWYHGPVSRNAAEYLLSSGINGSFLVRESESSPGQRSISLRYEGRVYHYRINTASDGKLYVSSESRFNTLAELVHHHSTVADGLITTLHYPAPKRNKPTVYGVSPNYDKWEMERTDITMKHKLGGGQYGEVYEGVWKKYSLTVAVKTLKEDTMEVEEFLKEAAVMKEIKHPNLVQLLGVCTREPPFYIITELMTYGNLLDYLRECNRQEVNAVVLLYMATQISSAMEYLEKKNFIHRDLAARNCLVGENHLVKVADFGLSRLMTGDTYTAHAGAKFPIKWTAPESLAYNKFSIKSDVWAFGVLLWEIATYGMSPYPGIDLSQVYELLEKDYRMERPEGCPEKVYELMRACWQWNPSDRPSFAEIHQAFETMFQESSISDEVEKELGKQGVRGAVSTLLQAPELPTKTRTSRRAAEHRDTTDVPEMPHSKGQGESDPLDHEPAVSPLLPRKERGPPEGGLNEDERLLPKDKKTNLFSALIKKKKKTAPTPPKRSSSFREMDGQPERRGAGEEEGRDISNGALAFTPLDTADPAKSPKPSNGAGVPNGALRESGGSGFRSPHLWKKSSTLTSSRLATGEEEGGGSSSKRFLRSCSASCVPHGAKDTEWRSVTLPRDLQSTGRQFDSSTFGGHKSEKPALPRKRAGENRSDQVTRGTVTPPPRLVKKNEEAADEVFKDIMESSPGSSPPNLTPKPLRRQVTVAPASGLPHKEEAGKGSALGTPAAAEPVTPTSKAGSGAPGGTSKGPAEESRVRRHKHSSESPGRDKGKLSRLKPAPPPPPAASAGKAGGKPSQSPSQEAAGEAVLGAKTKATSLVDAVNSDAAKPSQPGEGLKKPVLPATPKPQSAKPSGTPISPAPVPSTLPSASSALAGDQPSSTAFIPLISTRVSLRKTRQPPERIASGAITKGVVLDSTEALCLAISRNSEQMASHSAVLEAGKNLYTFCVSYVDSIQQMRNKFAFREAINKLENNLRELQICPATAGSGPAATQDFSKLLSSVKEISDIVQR
# panel of 468 kinases [3] = molecular target: T3, panel of 468 kinases (Homo sapiens, UniProt P42336, E545K); conditions: PIK3CA(E545K); 1 μM; read-out: % control
# T3 construct: purchased KINOMEscan (ScanMAX) service
# T3 sequence (P42336 whole entry E545K): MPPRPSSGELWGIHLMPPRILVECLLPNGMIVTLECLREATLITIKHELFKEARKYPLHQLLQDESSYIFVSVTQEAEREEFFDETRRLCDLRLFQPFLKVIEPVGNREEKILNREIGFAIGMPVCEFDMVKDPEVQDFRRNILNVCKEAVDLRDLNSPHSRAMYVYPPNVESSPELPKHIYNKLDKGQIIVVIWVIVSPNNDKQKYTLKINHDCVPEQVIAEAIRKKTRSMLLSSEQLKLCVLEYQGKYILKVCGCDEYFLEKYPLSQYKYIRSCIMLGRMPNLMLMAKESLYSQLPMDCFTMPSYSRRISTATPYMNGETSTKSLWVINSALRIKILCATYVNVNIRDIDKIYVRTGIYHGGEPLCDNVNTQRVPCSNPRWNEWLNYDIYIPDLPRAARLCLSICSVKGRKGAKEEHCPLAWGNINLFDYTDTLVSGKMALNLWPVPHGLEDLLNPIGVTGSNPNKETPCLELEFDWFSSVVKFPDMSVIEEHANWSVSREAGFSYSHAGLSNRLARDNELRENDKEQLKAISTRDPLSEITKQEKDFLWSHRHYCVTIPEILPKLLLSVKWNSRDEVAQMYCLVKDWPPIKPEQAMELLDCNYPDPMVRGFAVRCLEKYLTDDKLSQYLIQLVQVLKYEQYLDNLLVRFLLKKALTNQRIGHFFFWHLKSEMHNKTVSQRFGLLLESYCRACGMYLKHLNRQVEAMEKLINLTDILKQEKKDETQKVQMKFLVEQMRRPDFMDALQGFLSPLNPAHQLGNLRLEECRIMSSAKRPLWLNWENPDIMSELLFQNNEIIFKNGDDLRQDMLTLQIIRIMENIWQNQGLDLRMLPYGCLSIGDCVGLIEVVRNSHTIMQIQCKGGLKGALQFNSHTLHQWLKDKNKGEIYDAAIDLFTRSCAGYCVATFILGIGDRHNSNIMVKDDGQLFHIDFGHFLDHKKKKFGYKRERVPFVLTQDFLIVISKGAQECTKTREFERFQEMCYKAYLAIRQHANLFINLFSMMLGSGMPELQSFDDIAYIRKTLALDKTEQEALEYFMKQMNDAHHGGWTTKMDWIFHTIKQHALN
# panel of 468 kinases [4] = molecular target: T4, panel of 468 kinases (Homo sapiens, UniProt P57058); conditions: HUNK; 1 μM; read-out: % control
# T4 construct: purchased KINOMEscan (ScanMAX) service
# T4 sequence (P57058 1-714): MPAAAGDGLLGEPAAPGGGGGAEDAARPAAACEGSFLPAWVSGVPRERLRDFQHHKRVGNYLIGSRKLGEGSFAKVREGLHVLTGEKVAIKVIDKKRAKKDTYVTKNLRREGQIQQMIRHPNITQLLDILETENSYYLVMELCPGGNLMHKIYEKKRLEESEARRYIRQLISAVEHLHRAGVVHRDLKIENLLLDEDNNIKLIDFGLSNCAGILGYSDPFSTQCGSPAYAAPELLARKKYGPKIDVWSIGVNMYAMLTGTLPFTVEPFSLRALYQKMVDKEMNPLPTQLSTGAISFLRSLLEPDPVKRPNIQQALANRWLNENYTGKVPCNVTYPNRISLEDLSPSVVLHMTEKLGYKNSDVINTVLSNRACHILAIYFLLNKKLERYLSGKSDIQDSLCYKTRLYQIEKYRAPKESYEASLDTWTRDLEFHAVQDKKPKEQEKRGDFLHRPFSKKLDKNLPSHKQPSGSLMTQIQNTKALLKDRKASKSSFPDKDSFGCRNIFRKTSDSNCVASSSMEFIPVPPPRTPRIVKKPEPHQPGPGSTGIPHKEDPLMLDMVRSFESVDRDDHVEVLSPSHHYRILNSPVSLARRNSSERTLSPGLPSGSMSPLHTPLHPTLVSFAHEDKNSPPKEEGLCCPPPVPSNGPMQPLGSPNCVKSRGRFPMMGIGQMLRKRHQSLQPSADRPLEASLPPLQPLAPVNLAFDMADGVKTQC
# panel of 468 kinases [5] = molecular target: T5, panel of 468 kinases (Homo sapiens, UniProt P45985); conditions: MEK4; 1 μM; read-out: % control
# T5 construct: purchased KINOMEscan (ScanMAX) service
# T5 sequence (P45985 1-399): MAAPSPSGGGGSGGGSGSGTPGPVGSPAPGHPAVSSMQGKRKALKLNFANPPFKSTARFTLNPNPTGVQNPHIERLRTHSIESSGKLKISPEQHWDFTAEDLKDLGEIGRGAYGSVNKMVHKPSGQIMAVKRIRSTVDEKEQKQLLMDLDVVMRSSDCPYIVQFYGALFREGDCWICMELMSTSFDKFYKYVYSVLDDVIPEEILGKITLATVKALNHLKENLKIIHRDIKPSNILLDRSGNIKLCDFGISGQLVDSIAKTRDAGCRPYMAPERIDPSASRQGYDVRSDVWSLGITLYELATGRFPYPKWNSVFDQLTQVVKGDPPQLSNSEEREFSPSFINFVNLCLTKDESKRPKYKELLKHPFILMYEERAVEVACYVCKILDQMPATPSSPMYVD
# panel of 468 kinases [6] = molecular target: T6, panel of 468 kinases (Homo sapiens, UniProt P08581, Y1235D); conditions: MET(Y1235D); 1 μM; read-out: % control
# T6 construct: purchased KINOMEscan (ScanMAX) service
# T6 sequence (P08581 25-1390 Y1235D): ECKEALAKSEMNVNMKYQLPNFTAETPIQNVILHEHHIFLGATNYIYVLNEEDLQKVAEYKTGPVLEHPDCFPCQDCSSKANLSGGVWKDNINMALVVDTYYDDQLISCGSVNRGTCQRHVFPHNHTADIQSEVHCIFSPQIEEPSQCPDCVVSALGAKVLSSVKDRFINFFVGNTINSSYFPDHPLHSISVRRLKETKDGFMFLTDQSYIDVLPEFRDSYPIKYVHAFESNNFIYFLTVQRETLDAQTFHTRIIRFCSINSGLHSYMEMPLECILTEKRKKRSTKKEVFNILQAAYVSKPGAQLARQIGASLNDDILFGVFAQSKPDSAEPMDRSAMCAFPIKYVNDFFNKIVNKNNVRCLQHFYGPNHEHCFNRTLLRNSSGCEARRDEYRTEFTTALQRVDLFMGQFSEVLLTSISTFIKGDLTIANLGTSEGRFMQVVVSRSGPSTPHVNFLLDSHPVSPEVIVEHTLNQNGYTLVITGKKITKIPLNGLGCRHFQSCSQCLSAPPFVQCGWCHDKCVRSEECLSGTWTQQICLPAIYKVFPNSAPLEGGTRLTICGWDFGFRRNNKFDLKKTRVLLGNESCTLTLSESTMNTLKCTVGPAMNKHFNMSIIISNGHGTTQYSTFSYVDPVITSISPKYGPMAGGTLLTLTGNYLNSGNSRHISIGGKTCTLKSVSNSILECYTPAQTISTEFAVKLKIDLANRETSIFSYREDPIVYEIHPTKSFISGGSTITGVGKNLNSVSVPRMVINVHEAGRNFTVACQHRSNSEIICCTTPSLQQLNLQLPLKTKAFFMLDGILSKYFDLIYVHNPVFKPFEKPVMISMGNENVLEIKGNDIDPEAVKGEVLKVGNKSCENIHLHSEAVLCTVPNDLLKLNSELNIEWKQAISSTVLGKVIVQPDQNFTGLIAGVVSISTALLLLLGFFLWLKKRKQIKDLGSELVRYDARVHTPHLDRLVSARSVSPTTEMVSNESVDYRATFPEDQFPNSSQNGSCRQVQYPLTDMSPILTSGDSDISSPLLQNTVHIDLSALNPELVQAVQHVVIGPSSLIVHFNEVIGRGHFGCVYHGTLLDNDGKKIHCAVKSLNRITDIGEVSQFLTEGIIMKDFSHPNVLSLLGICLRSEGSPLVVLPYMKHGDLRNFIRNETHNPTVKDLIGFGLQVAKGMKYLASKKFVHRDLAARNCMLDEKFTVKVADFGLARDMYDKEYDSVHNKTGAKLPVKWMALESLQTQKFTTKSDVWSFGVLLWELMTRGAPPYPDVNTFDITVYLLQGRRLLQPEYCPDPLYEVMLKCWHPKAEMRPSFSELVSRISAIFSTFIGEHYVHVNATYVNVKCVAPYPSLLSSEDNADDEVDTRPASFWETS
# panel of 468 kinases [7] = molecular target: T7, panel of 468 kinases (Homo sapiens, UniProt P27037); conditions: ACVR2A; 1 μM; read-out: % control
# T7 construct: purchased KINOMEscan (ScanMAX) service
# T7 sequence (P27037 20-513): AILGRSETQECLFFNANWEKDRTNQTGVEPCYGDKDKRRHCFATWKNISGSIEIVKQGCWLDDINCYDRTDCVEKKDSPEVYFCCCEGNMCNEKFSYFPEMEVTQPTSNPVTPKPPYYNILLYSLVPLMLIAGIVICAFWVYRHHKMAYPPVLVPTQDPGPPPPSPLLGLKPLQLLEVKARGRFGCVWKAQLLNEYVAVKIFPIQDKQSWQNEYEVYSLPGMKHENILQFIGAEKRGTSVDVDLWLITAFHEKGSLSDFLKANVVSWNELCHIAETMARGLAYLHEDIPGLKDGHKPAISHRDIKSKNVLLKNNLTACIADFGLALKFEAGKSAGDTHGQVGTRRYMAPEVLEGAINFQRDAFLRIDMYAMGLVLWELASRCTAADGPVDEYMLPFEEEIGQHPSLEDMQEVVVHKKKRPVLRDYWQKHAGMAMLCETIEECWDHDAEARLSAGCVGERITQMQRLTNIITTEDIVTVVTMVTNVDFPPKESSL
# panel of 468 kinases [8] = molecular target: T8, panel of 468 kinases (Homo sapiens, UniProt Q13164); conditions: ERK5; 1 μM; read-out: % control
# T8 construct: purchased KINOMEscan (ScanMAX) service
# T8 sequence (Q13164 whole entry): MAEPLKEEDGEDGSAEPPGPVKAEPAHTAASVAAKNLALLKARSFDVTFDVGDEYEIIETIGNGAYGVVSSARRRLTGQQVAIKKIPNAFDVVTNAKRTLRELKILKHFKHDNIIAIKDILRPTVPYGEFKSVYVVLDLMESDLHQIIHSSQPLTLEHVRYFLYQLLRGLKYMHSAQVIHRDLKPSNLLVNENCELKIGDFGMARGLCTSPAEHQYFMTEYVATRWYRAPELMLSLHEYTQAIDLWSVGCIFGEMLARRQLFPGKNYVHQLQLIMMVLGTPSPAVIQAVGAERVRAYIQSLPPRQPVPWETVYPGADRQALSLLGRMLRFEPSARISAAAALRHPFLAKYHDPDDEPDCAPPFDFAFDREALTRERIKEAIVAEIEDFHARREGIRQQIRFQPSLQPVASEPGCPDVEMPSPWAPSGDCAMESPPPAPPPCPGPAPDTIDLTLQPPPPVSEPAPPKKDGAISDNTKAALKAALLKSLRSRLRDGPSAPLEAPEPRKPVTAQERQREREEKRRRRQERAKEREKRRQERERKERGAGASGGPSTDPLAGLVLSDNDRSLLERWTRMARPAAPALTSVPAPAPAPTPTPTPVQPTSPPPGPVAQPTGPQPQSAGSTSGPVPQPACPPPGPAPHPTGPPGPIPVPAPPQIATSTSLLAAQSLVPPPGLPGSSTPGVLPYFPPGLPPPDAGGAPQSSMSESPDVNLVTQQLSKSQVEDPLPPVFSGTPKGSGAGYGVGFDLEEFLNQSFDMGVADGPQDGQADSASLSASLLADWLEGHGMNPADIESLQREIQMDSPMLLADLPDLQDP
SMILES,remaining binding at 1 µM (panel of 468 kinases [1]),remaining binding at 1 µM (panel of 468 kinases [2]; ABL1(F317L)-nonphosphorylated),remaining binding at 1 µM (panel of 468 kinases [2]; ABL1(F317L)-phosphorylated),remaining binding at 1 µM (panel of 468 kinases [3]),remaining binding at 1 µM (panel of 468 kinases [4]),remaining binding at 1 µM (panel of 468 kinases [5]),remaining binding at 1 µM (panel of 468 kinases [6]),remaining binding at 1 µM (panel of 468 kinases [7]),remaining binding at 1 µM (panel of 468 kinases [8])
"CNc1nc(Nc2ccc(C(=O)N3CCC(N4CCOCC4)CC3)c3c2OCO3)nc2[nH]cc(Cl)c12 [Compound 75, (7-((5-chloro-4-(methylamino)-7H-pyrrolo[2,3-d]pyrimidin-2-yl)amino)benzo[d][1,3]dioxol-4-yl)(4-morpholinopiperidin-1-yl)methanone]",85%,100%,47%,100%,18%,0.05%,100%,100%,51%
"CNc1nc(Nc2ccc(S(=O)(=O)N3CCC(N4CCOCC4)CC3)cc2OC)nc2[nH]cc(Cl)c12 [Compound 12, 5-chloro-N2-(2-methoxy-4-((4-morpholinopiperidin-1-yl)sulfonyl)phenyl)-N4-methyl-7H-pyrrolo[2,3-d]pyrimidine-2,4-diamine]",96%,100%,70%,89%,12%,26%,100%,100%,53%
"CNc1nc(Nc2ccc(P3(=O)CCN(C4CCOCC4)CC3)cc2OC)nc2[nH]cc(Cl)c12 [Compound 77, 4-(4-((5-chloro-4-(methylamino)-7H-pyrrolo[2,3-d]pyrimidin-2-yl)amino)-3-methoxyphenyl)-1-(tetrahydro-2H-pyran-4-yl)-1,4-azaphosphinane 4-oxide]",98%,100%,54%,94%,14%,4.7%,100%,100%,78%
